Data reported in paper PMC9487510, “A Novel Oral GyrB/ParE Dual Binding Inhibitor Effective against Multidrug-Resistant Neisseria gonorrhoeae and Other High-Threat Pathogens” (Antimicrobial Agents and Chemotherapy, 2022).
≈ marks a conversion by molar mass, not a printed value. Like-named read-outs stand apart in the source and are kept apart here.

Test system: N. gonorrhoeae clinical isolates
Test: MIC, agar dilution (CLSI)
Format: cell-based, Neisseria gonorrhoeae
Details: for MIC: Neisseria gonorrhoeae, read-out: MIC

SMILES: CNc1cc(F)cc2c1[nH]c1nc(Oc3cnc(C)nc3)nc(N3CCC4(CC3)CO[C@@H](CO)C4)c12 [JSF-2414]
- MIC range (96 clinical isolates): 0.5 to 30 ng/mL
- MIC (ATCC700825, antibiotic-susceptible strain ATCC 700825): 3.9 ng/mL (≈ 7.9 nM)
- MIC (multidrug-resistant strain H041): 7.8 ng/mL (≈ 15.8 nM)
- MIC (strain CDC1 (GCREF2012 016)): 3.9 ng/mL (≈ 7.9 nM)
- MIC (strain CDC2 (GCREF2012 045)): 3.9 ng/mL (≈ 7.9 nM)
- MIC (strain CDC3 (GCREF2013 013)): 3.9 ng/mL (≈ 7.9 nM)
- MIC (strain CDC4 (GCREF2013 030)): 3.9 ng/mL (≈ 7.9 nM)
- MIC (strain CDC5 (GCREF2012 001)): 3.9 ng/mL (≈ 7.9 nM)
- MIC (strain CDC6 (GCREF2012 002)): 7.8 ng/mL (≈ 15.8 nM)
- MIC (strain CDC8 (GCREF2012 004)): 2 ng/mL (≈ 4.05 nM)
- MIC (strain CDC9 (GCREF2012 005)): 3.9 ng/mL (≈ 7.9 nM)
- MIC (strain CDC10 (GCREF2012 006)): 3.9 ng/mL (≈ 7.9 nM)
- MIC (strain CDC11 (GCREF2012 007)): 3.9 ng/mL (≈ 7.9 nM)
- MIC (strain CDC12 (GCREF2012 008)): 3.9 ng/mL (≈ 7.9 nM)
- MIC (strain CDC13 (GCREF2012 009)): 3.9 ng/mL (≈ 7.9 nM)
- MIC (strain CDC14 (GCREF2012 010)): 3.9 ng/mL (≈ 7.9 nM)
- MIC (strain CDC15 (GCREF2012 011)): 7.8 ng/mL (≈ 15.8 nM)
- MIC (strain CDC16 (GCREF2012 012)): 7.8 ng/mL (≈ 15.8 nM)
- MIC (strain CDC18 (GCREF2012 014)): 7.8 ng/mL (≈ 15.8 nM)
- MIC (strain CDC19 (GCREF2012 015)): 3.9 ng/mL (≈ 7.9 nM)
- MIC (strain CDC20 (GCREF2012 017)): 16 ng/mL (≈ 32.4 nM)
- MIC (strain CDC21 (GCREF2012 018)): 3.9 ng/mL (≈ 7.9 nM)
- MIC (strain CDC22 (GCREF2012 019)): 30 ng/mL (≈ 60.8 nM)
- MIC (strain CDC23 (GCREF2012 020)): 7.8 ng/mL (≈ 15.8 nM)
- MIC (strain CDC24 (GCREF2012 021)): 3.9 ng/mL (≈ 7.9 nM)
- MIC (strain CDC25 (GCREF2012 022)): 3.9 ng/mL (≈ 7.9 nM)
- MIC (strain CDC26 (GCREF2012 023)): 7.8 ng/mL (≈ 15.8 nM)
- MIC (strain CDC27 (GCREF2012 024)): 3.9 ng/mL (≈ 7.9 nM)
- MIC (strain CDC28 (GCREF2012 025)): 3.9 ng/mL (≈ 7.9 nM)
- MIC (strain CDC29 (GCREF2012 026)): 7.8 ng/mL (≈ 15.8 nM)
- MIC (strain CDC30 (GCREF2012 027)): 7.8 ng/mL (≈ 15.8 nM)
- MIC (strain CDC31 (GCREF2012 028)): 7.8 ng/mL (≈ 15.8 nM)
- MIC (strain CDC32 (GCREF2012 029)): 7.8 ng/mL (≈ 15.8 nM)
- MIC (strain CDC33 (GCREF2012 030)): 7.8 ng/mL (≈ 15.8 nM)
- MIC (strain CDC34 (GCREF2012 031)): 3.9 ng/mL (≈ 7.9 nM)
- MIC (strain CDC35 (GCREF2012 032)): 3.9 ng/mL (≈ 7.9 nM)
- MIC (strain CDC36 (GCREF2012 033)): 2 ng/mL (≈ 4.05 nM)
- MIC (strain CDC37 (GCREF2012 034)): 3.9 ng/mL (≈ 7.9 nM)
- MIC (strain CDC38 (GCREF2012 035)): 3.9 ng/mL (≈ 7.9 nM)
- MIC (strain CDC39 (GCREF2012 036)): 3.9 ng/mL (≈ 7.9 nM)
- MIC (strain CDC40 (GCREF2012 037)): 3.9 ng/mL (≈ 7.9 nM)
- MIC (strain CDC41 (GCREF2012 038)): 3.9 ng/mL (≈ 7.9 nM)
- MIC (strain CDC42 (GCREF2012 039)): 3.9 ng/mL (≈ 7.9 nM)
- MIC (strain CDC43 (GCREF2012 040)): 3.9 ng/mL (≈ 7.9 nM)
- MIC (strain CDC45 (GCREF2012 042)): 7.8 ng/mL (≈ 15.8 nM)
- MIC (strain CDC46 (GCREF2012 043)): 3.9 ng/mL (≈ 7.9 nM)
- MIC (strain CDC47 (GCREF2012 044)): 3.9 ng/mL (≈ 7.9 nM)
- MIC (strain CDC48 (GCREF2012 046)): 3.9 ng/mL (≈ 7.9 nM)
- MIC (strain CDC49 (GCREF2012 047)): 3.9 ng/mL (≈ 7.9 nM)
- MIC (strain CDC50 (GCREF2012 048)): 7.8 ng/mL (≈ 15.8 nM)
- MIC (strain CDC51 (GCREF2012 049)): 3.9 ng/mL (≈ 7.9 nM)
- MIC (strain CDC52 (GCREF2012 050)): 3.9 ng/mL (≈ 7.9 nM)
- MIC (strain CDC53 (GCREF2012 051)): 7.8 ng/mL (≈ 15.8 nM)
- MIC (strain CDC54 (GCREF2012 052)): 3.9 ng/mL (≈ 7.9 nM)
- MIC (strain CDC55 (GCREF2013 001)): 7.8 ng/mL (≈ 15.8 nM)
- MIC (strain CDC56 (GCREF2013 002)): 3.9 ng/mL (≈ 7.9 nM)
- MIC (strain CDC57 (GCREF2013 003)): 3.9 ng/mL (≈ 7.9 nM)
- MIC (strain CDC58 (GCREF2013 004)): 2 ng/mL (≈ 4.05 nM)
- MIC (strain CDC59 (GCREF2013 044)): 2 ng/mL (≈ 4.05 nM)
- MIC (strain CDC60 (GCREF2013 005)): 7.8 ng/mL (≈ 15.8 nM)
- MIC (strain CDC61 (GCREF2013 006)): 7.8 ng/mL (≈ 15.8 nM)
